This note sets out measurements from PubChem BioAssay (NCI).

Test systems include A498 renal; SF-539 CNS; NCI-H226 lung; A549 NSCLC; MCF7 breast; KM12 colon; HS 578T breast; SK-OV-3 ovarian; SK-MEL-28 melanoma; DU-145 prostate.
Holding throughout (assay): NCI-60 cell line screen, 48 h

Each structure is given as a SMILES string.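 Growth conditions: 96-well plates. Treatment: test compound, 48 hours, 5 concentrations. Analysis: linear interpolation between bracketing concentrations; unreached endpoints set to highest concentration. Here, GI50 denotes the concentration required for 50% inhibition of growth. TGI is the concentration that stops growth completely.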

Regarding `CCOC(=O)C(=O)C(/C(=N/N(C)C)C(=O)Nc1ccc(C)cc1C)c1nc2ccccc2[nH]c1=O` (stereo unspecified), the TGI with A498 renal, in the experiment on SF-539 CNS, with NCI-H226 lung, in the experiment with A549 NSCLC, in the experiment on MCF7 breast and in the experiment with KM12 colon was more than 100 µM in each case. Further, the TGI with HS 578T breast, in the experiment on SK-OV-3 ovarian and in the experiment with SK-MEL-28 melanoma was more than 100 µM throughout.
Regarding `COc1cc2c(cc1OC)-c1ncc3cc(OC)c(OC)cc3c1C2`, the GI50 in the experiment with DU-145 prostate, in the experiment on SF-539 CNS, with A549 NSCLC, in the experiment with MCF7 breast, in the experiment with KM12 colon and in the experiment with SK-OV-3 ovarian was more than 50 µM each time. In the experiment on SK-MEL-28 melanoma, the GI50 is more than 50 µM. Besides, the TGI in the experiment with DU-145 prostate, in the experiment on SF-539 CNS, in the experiment with A549 NSCLC, in the experiment on MCF7 breast, in the experiment with KM12 colon and in the experiment on SK-OV-3 ovarian was more than 50 µM each time. The TGI with SK-MEL-28 melanoma was more than 50 µM.
`COC(=O)[C@H](Cc1cn(C)cn1)NC(=O)[C@@H](NC(=O)Nc1cc(C(F)(F)F)cc(C(F)(F)F)c1)C(C)(C)C`: the GI50 with A498 renal, in the experiment with DU-145 prostate, with SF-539 CNS, with NCI-H226 lung, in the experiment with A549 NSCLC and with MCF7 breast was more than 10 µM in each case. Also, the GI50 with KM12 colon, with SK-OV-3 ovarian and in the experiment on SK-MEL-28 melanoma was more than 10 µM in each case. Besides, the TGI in the experiment on A498 renal, in the experiment on DU-145 prostate, with SF-539 CNS, with NCI-H226 lung, in the experiment with A549 NSCLC and in the experiment with MCF7 breast was more than 10 µM each time. Besides, the TGI in the experiment on KM12 colon, in the experiment on SK-OV-3 ovarian and with SK-MEL-28 melanoma was more than 10 µM throughout.
Consider `CCCCCCC(O)C(O)CCC(O)C1CCC(CCCCC(O)CC2=CC(C)OC2=O)O1` (stereo unspecified), for which the TGI is 47.6 µM in the experiment with A498 renal; more than 100 µM with SF-539 CNS; 34.7 µM with NCI-H226 lung; 35.3 µM in the experiment with A549 NSCLC; 28 µM in the experiment on MCF7 breast; 77.7 µM in the experiment on KM12 colon. For the same compound, the figures for the TGI in the experiment with HS 578T breast and in the experiment with SK-MEL-28 melanoma were 6.98 µM and 62.5 µM, respectively. In addition, the GI50 in the experiment on SF-539 CNS is more than 100 µM; in the experiment with NCI-H226 lung, 15.2 µM; in the experiment on A549 NSCLC, 10.6 µM; with MCF7 breast, 10.1 µM; in the experiment on KM12 colon it was 24.5 µM; in the experiment on SK-MEL-28 melanoma it was 26 µM.
For `CNC(=S)N(C1CCCCC1)C1CCCCC1`, the TGI with DU-145 prostate, in the experiment on SF-539 CNS, in the experiment with NCI-H226 lung, in the experiment on A549 NSCLC, with MCF7 breast and in the experiment with KM12 colon was more than 100 µM in each case. Further, the TGI is 98.8 µM in the experiment with HS 578T breast, more than 100 µM in the experiment with SK-OV-3 ovarian and more than 100 µM in the experiment on SK-MEL-28 melanoma.
Turning to `O=c1c(-c2nc3ccccc3[nH]2)cc2ccccc2n1Cc1cn(Cc2ccccc2Cl)nn1`, the GI50 in the experiment on DU-145 prostate is 1.72 µM; with SF-539 CNS, 1.78 µM; in the experiment on NCI-H226 lung it was 2.3 µM; in the experiment on A549 NSCLC it was 2.05 µM; in the experiment with MCF7 breast, 1.78 µM; in the experiment on KM12 colon it was 2.5 µM. Further, the GI50 with HS 578T breast is 1.93 µM; with SK-MEL-28 melanoma, 1.82 µM. The TGI was 3.21 µM with DU-145 prostate; 3.66 µM in the experiment on SF-539 CNS; 6.99 µM in the experiment with NCI-H226 lung; 4.38 µM in the experiment with A549 NSCLC; 3.77 µM in the experiment on MCF7 breast; 7.72 µM in the experiment on KM12 colon. Further, the TGI in the experiment on HS 578T breast turned out to be 5.91 µM; in the experiment on SK-MEL-28 melanoma, 3.35 µM.
On to `Cc1ccc2c(c1)-c1oc(=O)c(-c3cc4ccccc4oc3=O)cc1C(O)O2` (stereo unspecified), for which the GI50 with A498 renal was 16.2 µM; in the experiment with DU-145 prostate it was 11.6 µM; with SF-539 CNS it was 13.3 µM; in the experiment on NCI-H226 lung, 18.9 µM; in the experiment with A549 NSCLC it was 29.9 µM; with MCF7 breast, 31.7 µM. The GI50 in the experiment with KM12 colon is 19.6 µM; with HS 578T breast it was 24 µM; in the experiment with SK-MEL-28 melanoma, 30.2 µM. The TGI was 30.3 µM in the experiment on A498 renal; 23.8 µM with DU-145 prostate; 26 µM with SF-539 CNS; 40.5 µM in the experiment on NCI-H226 lung; more than 100 µM in the experiment with A549 NSCLC; more than 100 µM in the experiment with MCF7 breast. Also, the TGI is 48.3 µM with KM12 colon, 47.7 µM in the experiment with HS 578T breast and 75.2 µM with SK-MEL-28 melanoma.
`CN1CCN(c2ccc(-c3cccc(CN4CCOCC4)c3)cc2NC(=O)c2c[nH]c(=O)cc2C(F)(F)F)CC1`: the GI50 in the experiment with DU-145 prostate is 62.5 µM; in the experiment with SF-539 CNS, 19.5 µM; in the experiment with NCI-H226 lung it was more than 100 µM; in the experiment with A549 NSCLC it was 53.5 µM; in the experiment with MCF7 breast it was 33.1 µM; with KM12 colon it was 46.8 µM. The GI50 with HS 578T breast was 44.8 µM; in the experiment with SK-OV-3 ovarian, more than 100 µM; with SK-MEL-28 melanoma, 37.1 µM. The TGI was more than 100 µM in the experiment with DU-145 prostate; 44.7 µM in the experiment with SF-539 CNS; more than 100 µM in the experiment with NCI-H226 lung; more than 100 µM in the experiment on A549 NSCLC; more than 100 µM in the experiment on MCF7 breast; more than 100 µM in the experiment on KM12 colon. Also, the TGI with HS 578T breast, in the experiment with SK-OV-3 ovarian and in the experiment on SK-MEL-28 melanoma was more than 100 µM each time.
